# Biological target: T1, human EHMT2 913-1193 (Homo sapiens, UniProt Q96KQ7)
# T1 construct: recombinant purified human EHMT2 913-1193, Viva; purchased Viva
# T1 sequence (Q96KQ7 913-1193): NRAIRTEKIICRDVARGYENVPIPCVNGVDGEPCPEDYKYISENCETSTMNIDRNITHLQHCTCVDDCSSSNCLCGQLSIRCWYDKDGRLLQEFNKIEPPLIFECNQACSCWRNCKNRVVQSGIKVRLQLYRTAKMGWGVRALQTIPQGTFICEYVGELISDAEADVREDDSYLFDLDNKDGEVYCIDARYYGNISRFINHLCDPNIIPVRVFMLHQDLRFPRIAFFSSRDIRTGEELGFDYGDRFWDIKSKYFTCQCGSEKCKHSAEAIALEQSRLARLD
# Experiment: biochemical
# Conditions: not given
# From the text: Biotinylated histone peptides were synthesized by Biopeptide and HPLC-purified to >95% purity. Streptavidin Flashplates and seals were purchased from PerkinElmer and 384 Well V-bottom Polypropylene Plates were from Greiner. ^3H-labeled S-adenosylmethionine (^3H-SAM) was obtained from American Radiolabeled Chemicals with a specific activity of 80 Ci/mmol. Unlabeled SAM and S-adenosylhomocysteine (SAH) were obtained from American Radiolabeled Chemicals and Sigma-Aldrich respectively. […] 384-well Flashplates and 96-well filter binding plates were read on a TopCount microplate reader (PerkinElmer). Compound serial dilutions were performed on a Freedom EVO (Tecan) and spotted into assay plates using a Thermo Scientific Matrix PlateMate (Thermo Scientific). Reagent cocktails were added by Multidrop Combi (Thermo Scientific).
# General Procedure for EHMT2 Enzyme Assay on Histone Peptide Substrate. 10-point curves of test compounds were made on a Freedom EVO (Tecan) using serial 3-fold dilutions in DMSO, beginning at 2.5 mM (final top concentration of compound was 50 μM and the DMSO was 2%). A 1 μL aliquot of the inhibitor dilution series was spotted in a polypropylene 384-well V-bottom plate (Greiner) using a Thermo Scientific Matrix PlateMate (Thermo Scientific). […] Reactions were incubated for 60 minutes at room temperature and quenched with 10 μL per well of 400 μM unlabeled SAM, then transferred to a 384-well streptavidin Flashplate (PerkinElmer) and washed in a Biotek ELx-405 well washer with 0.1% Tween after 60 minutes. 384-well Flashplates were read on a TopCount microplate reader (PerkinElmer).
row,Compound,IC50
1,"COc1cc2c(cc1OCCCN1CCCC1)N=C(N)C21CCOC1 (stereo not drawn) [Compound 7, 5′-methoxy-6′-(3-(pyrrolidin-1-yl)propoxy)-4,5-dihydro-2H-spiro[furan-3,3′-indol]-2′-amine]",< 0.1 µM

# Same assay, conditions: recombinant human EHMT2 913-1193, histone H3 1-15 peptide, 3H-SAM, balanced conditions; read-out: EHMT2 PEP (IC50 μM)
row,Compound,IC50
1,"COc1cc2sc(N)nc2cc1OCCCN1CCCC1 [Compound 6, 6-methoxy-5-[3-(pyrrolidin-1-yl)propoxy]-1,3-benzothiazol-2-amine]",1 to 10 µM
2,"COc1cc2c(cc1OCCCN1CCCC1)nc(N)n2CC(F)(F)F [Compound 11, 6-methoxy-5-(3-(pyrrolidin-1-yl)propoxy)-1-(2,2,2-trifluoroethyl)-1H-benzo[d]imidazole-2-amine]",0.1 to 1 µM
3,"COc1cc2c(cc1OCCCN1CCCC1)nc(NCC(F)(F)F)n2C [Compound 12, 6-methoxy-1-methyl-5-(3-(pyrrolidin-1-yl)propoxy)-N-(2,2,2-trifluoroethyl)-1H-benzo[d]imidazol-2-amine]",1 to 10 µM
4,COc1cc2c(cc1OCCCN1CCCC1)nc(N)n2CC1CCOCC1 [Compound 18],0.1 to 1 µM
5,"COc1cc2c(cc1OCCCN1CCCC1)nc(C)n2C [Compound 21, 6-methoxy-1,2-dimethyl-5-(3-(pyrrolidin-1-yl)propoxy)-1H-benzo[d]imidazole]",1 to 10 µM
6,"COc1cc2c(cc1OCCCN1CCCC1)nc(C1CCCC1)n2C [Compound 22, 2-cyclopentyl-6-methoxy-1-methyl-5-(3-(pyrrolidin-1-yl)propoxy)-1H-benzo[d]imidazole]",1 to 10 µM
7,"COc1cc2c(cc1OCCCN1CCCC1)nc(C)n2C1CCCC1 [Compound 23, 1-cyclopentyl-6-methoxy-2-methyl-5-(3-(pyrrolidin-1-yl)propoxy)-1H-benzo[d]imidazole]",0.1 to 1 µM
8,CNc1nc2cc(OC[C@H](O)CN3CCC3)c(OC)cc2n1C [Compound 25],0.1 to 1 µM
9,CNc1nc2cc(OC[C@H](O)CN3CCCC3)c(OC)cc2n1C [Compound 26],0.1 to 1 µM
10,CCNc1nc2cc(OCCCN3CCCC3)c(OC)cc2n1C [Compound 27],0.1 to 1 µM
11,COc1cc2c(cc1OCCCN1CCCC1)nc(NC(C)C)n2C [Compound 28],0.1 to 1 µM
12,COc1cc2c(cc1OCCCN1CCCC1)nc(NC1CCOCC1)n2C [Compound 29],1 to 10 µM
13,COc1cc2c(cc1OCCCN1CCCC1)nc(NC1CCCC1)n2C [Compound 30],0.1 to 1 µM
14,CCNc1nc2cc(OC[C@H](O)CN3CCCC3)c(OC)cc2n1C [Compound 31],0.1 to 1 µM
15,COc1cc2c(cc1OC[C@H](O)CN1CCCC1)nc(NC(C)C)n2C [Compound 32],0.1 to 1 µM
16,COc1cc2c(cc1OC[C@H](O)CN1CCCC1)nc(NC1CCCC1)n2C [Compound 33],0.1 to 1 µM
17,COc1cc2c(cc1OC[C@H](O)CN1CCCC1)nc(NCC1CC1)n2C [Compound 34],0.1 to 1 µM
18,COc1cc2c(cc1OC[C@H](O)CN1CCCC1)nc(NC1CCOCC1)n2C [Compound 35],1 to 10 µM
19,CNc1nc2cc(CNCCN3CCCC3)c(OC)cc2n1C(C)C [Compound 40],0.1 to 1 µM
20,COc1cc2c(cc1CNCCN1CCCC1)N=C(NC1CCOCC1)C21CCC1 [Compound 76],1 to 10 µM
21,CNC1=Nc2cc(C#C[C@@H](C)N3CCCC3)c(OC)cc2C12CCC2 [Compound 86],0.1 to 1 µM
22,CNC1=Nc2cc(C#CCN3CCC(F)C3)c(OC)cc2C12CCC2 (stereo not drawn) [Compound 100],0.1 to 1 µM
23,CNc1nc2cc(CNCCN3CCCC3)c(Cl)cc2n1C(C)C [Compound 138],1 to 10 µM
24,CNc1nc2cc(CNCCN3CCCC3)c(C)cc2n1C(C)C [Compound 139],1 to 10 µM

# Second part, the molecule after the results:
row,IC50,Compound
1,< 0.1 µM,"COc1cc2[nH]c(N)nc2cc1OCCCN1CCCC1 [Compound 1, 6-methoxy-5-(3-(pyrrolidin-1-yl)propoxy)-1H-benzo[d]imidazol-2-amine]"
2,< 0.1 µM,"COc1cc2c(cc1OCCCN1CCCC1)nc(N)n2C [Compound 2, 6-methoxy-1-methyl-5-(3-(pyrrolidin-1-yl)propoxy)-1H-benzo[d]imidazol-2-amine]"
3,< 0.1 µM,"COc1cc2c(cc1OCCCN1CCCC1)nc(N)n2C1CCCC1 [Compound 3, 1-cyclopentyl-6-methoxy-5-(3-(pyrrolidin-1-yl)propoxy)-1H-benzo[d]imidazol-2-amine]"
4,< 0.1 µM,"COc1cc2c(cc1OCCCN1CCCC1)N=C(N)C21CCOCC1 [Compound 5, 5-methoxy-6-(3-(pyrrolidin-1-yl)propoxy)-2′,3′,5′,6′-tetrahydrospiro[indole-3,4′-pyran]-2-amine]"
5,< 0.1 µM,"CNc1nc2cc(OCCCN3CCCC3)c(OC)cc2n1C [Compound 8, 6-methoxy-N,1-dimethyl-5-(3-(pyrrolidin-1-yl)propoxy)-1H-benzo[d]imidazol-2-amine]"
6,< 0.1 µM,"CCN1CC[C@@H](COc2cc3nc(N)n(C4CCCC4)c3cc2OC)C1 [Compound 9, 1-cyclopentyl-5-[[(3R)-1-ethylpyrrolidin-3-yl]methoxy]-6-methoxy-1H-1,3-benzodiazol-2-amine]"
7,0.1 to 1 µM,"CCN1CC(COc2cc3nc(N)n(C4CCCC4)c3cc2OC)C1 [Compound 10, 1-cyclopentyl-5-((1-ethylazetidin-3-yl)methoxy)-6-methoxy-1H-benzo[d]imidazol-2-amine]"
8,< 0.1 µM,"CNc1nc2cc(OCCCN3CCCC3)c(OC)cc2n1C1CCOCC1 [Compound 13, 6-methoxy-N-methyl-5-(3-(pyrrolidin-1-yl)propoxy)-1-(tetrahydro-2H-pyran-4-yl)-1H-benzo[d]imidazol-2-amine]"
9,< 0.1 µM,COc1cc2c(cc1OCCCN1CCCC1)nc(N)n2C(C)C [Compound 19]
10,< 0.1 µM,"COc1cc2c(cc1C#CCN1CCCC1)N=C(N)C21CCC1 [Compound 24, 5′-methoxy-6′-(3-(pyrrolidin-1-yl)prop-1-yn-1-yl)spiro[cyclobutane-1,3′-indol]-2′-amine]"
11,< 0.1 µM,CNc1nc2cc(OCCCN3CCCC3)c(OC)cc2n1C(C)C [Compound 36]
12,< 0.1 µM,CNc1nc2cc(CNCCN3CCCC3)c(OC)cc2n1C [Compound 37]
13,< 0.1 µM,CNc1nc2cc(OC[C@H](O)CN3CCCC3)c(OC)cc2n1C1CCCC1 [Compound 38]
14,< 0.1 µM,CCNc1nc2cc(OCCCN3CCCC3)c(OC)cc2n1CC [Compound 39]
15,< 0.1 µM,CCn1c(NC)nc2cc(CNCCN3CCCC3)c(OC)cc21 [Compound 41]
16,< 0.1 µM,CCn1c(NC)nc2cc(OCCCN3CCCC3)c(OC)cc21 [Compound 42]
17,< 0.1 µM,CNC1=Nc2cc(CNCCN3CCCC3)c(OC)cc2C12CCC2 [Compound 70]
18,< 0.1 µM,CCNC1=Nc2cc(CNCCN3CCCC3)c(OC)cc2C12CCC2 [Compound 71]
19,< 0.1 µM,CCNC1=Nc2cc(CNCCN3CCC3)c(OC)cc2C12CCC2 [Compound 72]
20,< 0.1 µM,CCCNC1=Nc2cc(CNCCN3CCCC3)c(OC)cc2C12CCC2 [Compound 73]
21,< 0.1 µM,CNC1=Nc2cc(C#CCN3CCCC3)c(OC)cc2C12CCC2 [Compound 74]
22,< 0.1 µM,"CNC1=Nc2cc(C#CCN3CCCCC3)c(OC)cc2C12CCC2 [Compound 75, 5′-methoxy-N-methyl-6′-(3-(piperidin-1-yl)prop-1-yn-1-yl)spiro[cyclobutane-1,3′-indol]-2′-amine]"
23,< 0.1 µM,CNC1=Nc2cc(C#CC(C)N3CCCC3)c(OC)cc2C12CCC2 (stereo not drawn) [Compound 84]
24,< 0.1 µM,CNC1=Nc2cc(C#C[C@H](C)N3CCCC3)c(OC)cc2C12CCC2 [Compound 85]
25,< 0.1 µM,CNC1=Nc2cc(C#CC(C)N3CCCCC3)c(OC)cc2C12CCC2 (stereo not drawn) [Compound 92]
26,< 0.1 µM,COCCNC1=Nc2cc(C#CCN3CCCCC3)c(OC)cc2C12CCC2 [Compound 99]
